This series can be described thus: collision cross section in nitrogen (drift tube, single-field); higher = larger gas-phase ion size.
[1] abbreviates: ion type: [M-H], ion source: ESI, ion mode: Negative.
Setting [2] is: ion type: [M+H], ion source: APCI, ion mode: Positive.
Setting [3] is: ion type: [M+H], ion source: ESI, ion mode: Positive.
Where [4] appears, read: ion type: [M+Na], ion source: ESI, ion mode: Positive.
Where [5] appears, read: ion type: [M+], ion source: APCI, ion mode: Positive.

Counter-ions that a name gives are not always drawn.

Here are results for 51 compounds from the supplement of paper PMC12317010.
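Note: chemical standards at 10 µM analysed by drift tube IMS-QTOF MS in about 3.95 torr nitrogen, mean of duplicate injections differing ≤1%, mass error below 10 ppm.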

Consider `O=C(Nc1ccccc1)c1cc([N+](=O)[O-])ccc1Cl` [2-Chloro-5-nitro-N-phenylbenzamide], for which the “collision cross section in nitrogen” value under setting [1] came out at 159.9 Å². Still for that read-out and setting: the figure for `Nc1cc([N+](=O)[O-])ccc1Cl` [2-Chloro-5-nitroaniline] is 125.5 Å². For the compound `Cc1cc(Br)ccc1NC(=O)CCl` [2-Chloro-N-(2-methyl-4-bromophenyl)acetamide], under setting [1], the “collision cross section in nitrogen” value is recorded as 146 Å². On the same count and under the same terms, next, `NS(=O)(=O)c1ccccc1Cl` [2-Chlorobenzenesulfonamide]: 133.5 Å²; `CCC(C)(CC)C(=O)O` [2-Ethyl-2-methylbutyric acid]: 130.5 Å². With `CCc1nc(C)c[nH]1` [2-Ethyl-4-methyl-1H-imidazole], the “collision cross section in nitrogen” value turned out to be 120.3 Å² under setting [2] and 121.2 Å² under setting [3].

As to `CCC(CC)C(=O)O` [2-Ethylbutyric acid], under setting [1], the “collision cross section in nitrogen” value came out at 127.6 Å². The same measure, in the same setting: next, `CCCCC(CC)C(=O)O` (stereo unspecified) [2-Ethylhexanoic acid]: 138.1 Å²; `CCCCC(CC)COP(=O)(O)O` (stereo unspecified) [2-Ethylhexyl dihydrogen phosphate]: 150.7 Å². For `CCCCC(CC)COP(=O)(Oc1ccccc1)Oc1ccccc1` (stereo unspecified) [2-Ethylhexyl diphenyl phosphate], under setting [4], the “collision cross section in nitrogen” value was 200.9 Å². For `CCCCC(CC)COC(=O)c1ccc(O)cc1` (stereo unspecified) [2-Ethylhexyl p-hydroxybenzoate], under setting [1], the “collision cross section in nitrogen” value is listed as 169.9 Å². The same measure, in the same setting: next, `CCc1ccccc1O` [2-Ethylphenol]: 124.3 Å²; `CCCCCCCCC(CCCCCC)C(=O)O` (stereo unspecified) [2-Hexyldecanoic acid]: 176.7 Å². As for `NNc1nc(-c2ccc(N)cc2)cs1` [2-Hydrazino-4-(4-aminophenyl) thiazole], the “collision cross section in nitrogen” value under setting [3] is recorded as 146.2 Å². As to `NNc1nc(-c2ccc([N+](=O)[O-])cc2)cs1` [2-Hydrazino-4-(4-nitrophenyl)thiazole], the “collision cross section in nitrogen” value under setting [1] is given as 149 Å². Consider `COc1ccc(C(=O)c2ccccc2)c(O)c1` [2-Hydroxy-4-methoxybenzophenone], for which the “collision cross section in nitrogen” value amounted to 147.3 Å² under setting [2] and 152.9 Å² under setting [1].

With `CC(=O)Nc1ccccc1O` [2-Hydroxyacetanilide], the “collision cross section in nitrogen” value under setting [1] stood at 130.2 Å².

Regarding `O=C(c1ccccc1)c1ccccc1O` [2-Hydroxybenzophenone], under setting [1], the “collision cross section in nitrogen” value turned out to be 143.4 Å². Same read-out and setting: the figure for `Oc1ccc2c(c1)Cc1ccccc1-2` [2-Hydroxyfluorene] is 141.5 Å².

With `Oc1ccccc1I` [2-Iodophenol], under setting [1], the “collision cross section in nitrogen” value amounted to 121.9 Å². Turning to `Cc1cc(=O)nc(C(C)C)[nH]1` [2-Isopropyl-6-methyl-4-pyrimidone], the “collision cross section in nitrogen” value is, setting by setting: under setting [2], 133.9 Å²; under setting [3], 132.5 Å²; under setting [4], 146.4 Å²; under setting [1], 135.5 Å². As for `CC(C)c1ccccc1O` [2-Isopropylphenol], the “collision cross section in nitrogen” value under setting [1] amounted to 129.3 Å². `CC(C)c1ccc2sc3ccccc3c(=O)c2c1` [2-Isopropylthioxanthone]: the “collision cross section in nitrogen” value runs as follows: under setting [2], 155.5 Å²; under setting [3], 156.4 Å². `CC(C)CC(=O)C1C(=O)c2ccccc2C1=O` [2-Isovaleryl-1,3-indanedione]: the “collision cross section in nitrogen” value under setting [1] is listed as 154.2 Å². On to `S=c1[nH]c2ccccc2[nH]1` [2-Mercaptobenzimidazole], for which the “collision cross section in nitrogen” value is recorded as 128 Å² under setting [2], 127.8 Å² under setting [3], 125.7 Å² under setting [5] and 127.1 Å² under setting [1]. As to `Sc1nc2ccccc2s1` [2-Mercaptobenzothiazole], the “collision cross section in nitrogen” value under setting [1] came to 128.2 Å². Consider `COc1ccccc1C=O` [2-Methoxybenzaldehyde], for which the “collision cross section in nitrogen” value under setting [5] came to 124.1 Å².

For the compound `Cc1c(O)cccc1O` [2-Methyl-1,3-benzenediol], under setting [1], the “collision cross section in nitrogen” value was 123.6 Å². Turning to `Cn1sccc1=O` [2-Methyl-3(2H)-isothiazolone], the “collision cross section in nitrogen” value runs as follows: under setting [2], 117.1 Å²; under setting [3], 117.9 Å². On to `Cn1sccc1=O` [2-Methyl-3-isothiazolone hydrochloride], for which, under setting [3], the “collision cross section in nitrogen” value worked out at 118.5 Å². In the case of `CSc1ccc(C(=O)C(C)(C)N2CCOCC2)cc1` [2-Methyl-4'-(methylthio)-2-morpholinopropiophenone], the “collision cross section in nitrogen” value came out at 166.4 Å² under setting [2] and 166.7 Å² under setting [3].

`CCCCCCCCSCc1cc(C)c(O)c(CSCCCCCCCC)c1` [2-Methyl-4,6-bis[(octylthio)methyl]phenol]: the “collision cross section in nitrogen” value under setting [1] is 208 Å². The same measure, in the same setting: the figure for `Cc1ccc2c(c1)C(=O)c1ccccc1C2=O` [2-Methylanthraquinone] is 145.3 Å²; for `Cc1ccccc1S(=O)(=O)O` [2-Methylbenzenesulfonic acid] it is 131.9 Å². Still for that read-out and setting: next, `Cc1ncc[nH]1` [2-Methylimidazole]: 112.8 Å².

As for `Cc1ccc2ccccc2n1` [2-Methylquinoline], the “collision cross section in nitrogen” value amounted to 125.2 Å² under setting [2] and 126.2 Å² under setting [3]. On to `CCCCCCCCCCCCCC(=O)OC(CO)CO` [2-Myristoyl glycerol], for which the “collision cross section in nitrogen” value under setting [4] is 183.7 Å². `Oc1ccc2ccccc2c1` [2-Naphthalenol]: the “collision cross section in nitrogen” value under setting [1] is listed as 128.7 Å². As to `O=C(O)COc1ccc2ccccc2c1` [2-Naphthoxyacetic acid], under setting [1], the “collision cross section in nitrogen” value was determined as 151.2 Å². The same measure, in the same setting: the figure for `Nc1ccccc1[N+](=O)[O-]` [2-Nitrobenzenamine] is 121.6 Å²; for `O=[N+]([O-])c1ccc2c(c1)Cc1ccccc1-2` [2-Nitrofluorene] it is 141.1 Å².

For the compound `O=[N+]([O-])c1ccccc1O` [2-Nitrophenol], the “collision cross section in nitrogen” value under setting [1] is recorded as 121.2 Å². In the case of `NC(=O)CN1CCCC1=O` [2-Oxo-1-Pyrrolidineacetamide], the “collision cross section in nitrogen” value under setting [4] is given as 136.8 Å². Consider `c1ccc(-c2nc3ccccc3[nH]2)cc1` [2-Phenylbenzimidazole], for which the “collision cross section in nitrogen” value was 142.8 Å² under setting [2], 143 Å² under setting [3] and 142.6 Å² under setting [1]. As to `Oc1ccccc1-c1ccccc1` [2-Phenylphenol], the “collision cross section in nitrogen” value under setting [1] is reported as 136.4 Å². As to `OCCC1CCCCN1` (stereo unspecified) [2-Piperidineethanol], the “collision cross section in nitrogen” value under setting [2] came out at 125.7 Å² and the “collision cross section in nitrogen” value under setting [3] was determined as 126.6 Å². Take `C=CCS(=O)(=O)O` [2-Propene-1-sulfonic acid, sodium salt]: under setting [1], the “collision cross section in nitrogen” value is reported as 119.1 Å². On the same count and under the same terms, next, `CCCc1ccccc1O` [2-Propylphenol]: 129.6 Å². On to `CCCCOCCOCCOCCO` [2-[2-(2-Butoxyethoxy)ethoxy]ethanol], for which the “collision cross section in nitrogen” value under setting [4] was found to be 150.9 Å².

`COCCOCCOCCO` [2-[2-(2-Methoxyethoxy)ethoxy]ethanol]: under setting [4], the “collision cross section in nitrogen” value came out at 135.6 Å². Still for that read-out and setting: next, `CCCOCCOCCOCCO` [2-[2-(2-Propoxyethoxy)ethoxy]ethanol]: 144.4 Å².
